Laboratory results: the NIST ThermoML archive (doi:10.1016/j.fluid.2011.01.007)
± gives the expanded uncertainty stated by the source.

What was measured:
[1] = 298.15 K; 101.33 kPa; Liquid; Vibrating tube method
[2] = refractive index (Na D-line) (dimensionless); details: 298.15 K; 101.33 kPa; Liquid; Standard Abbe refractometry
[3] = xn = mol fraction of the nth substance listed; details: 298.15 K, 101 kPa, Liquid, Vibrating tube method
[4] = refractive index (Na D-line) (dimensionless); xn = mol fraction of the nth substance listed; details: 298.15 K, 101 kPa, Liquid, Standard Abbe refractometry

c1ccccc1 [benzene]
Details	mass density [kg/m3]	refractive index
[1]	873.57 ± 0.43	–
[2]	–	1.49764 ± 0.00037

COC(=O)OC [dimethyl carbonate]
Details	mass density [kg/m3]	refractive index
[1]	1063.04 ± 0.51	–
[2]	–	1.36654 ± 0.00033

COC(=O)OC [dimethyl carbonate] + Cc1ccccc1
Details	mass density, [3] [kg/m3]	refractive index, [4]
x1 = 0.0496	869.6 ± 0.1	1.4883 ± 0.0004
x1 = 0.0998	877.39 ± 0.1	1.4827 ± 0.0004
x1 = 0.2001	893.69 ± 0.09	1.4715 ± 0.0004
x1 = 0.3003	910.85 ± 0.09	1.4597 ± 0.0004
x1 = 0.3998	928.88 ± 0.08	1.4475 ± 0.0004
x1 = 0.5002	948 ± 0.08	1.4352 ± 0.0004
x1 = 0.5999	968.16 ± 0.08	1.4224 ± 0.0004
x1 = 0.6999	989.62 ± 0.07	1.4091 ± 0.0004
x1 = 0.7998	1012.35 ± 0.08	1.3954 ± 0.0003
x1 = 0.8988	1036.61 ± 0.08	1.3814 ± 0.0003
x1 = 0.9487	1049.29 ± 0.09	1.3741 ± 0.0003

COC(=O)OC [dimethyl carbonate] + c1ccccc1
Details	mass density, [3] [kg/m3]	refractive index, [4]
x1 = 0.0518	882.09 ± 0.1	1.4902 ± 0.0004
x1 = 0.0988	889.99 ± 0.09	1.4836 ± 0.0004
x1 = 0.1995	907.42 ± 0.09	1.4699 ± 0.0004
x1 = 0.2994	925.15 ± 0.08	1.4565 ± 0.0004
x1 = 0.401	943.6 ± 0.08	1.4431 ± 0.0004
x1 = 0.5002	962.07 ± 0.08	1.4301 ± 0.0004
x1 = 0.6003	981.15 ± 0.07	1.417 ± 0.0004
x1 = 0.699	1000.51 ± 0.07	1.4044 ± 0.0004
x1 = 0.7981	1020.48 ± 0.08	1.3918 ± 0.0003
x1 = 0.9	1041.49 ± 0.08	1.3789 ± 0.0003
x1 = 0.9497	1052 ± 0.09	1.3727 ± 0.0003

CCO [ethanol]
Details	mass density [kg/m3]	refractive index
[1]	785.33 ± 0.39	–
[2]	–	1.35928 ± 0.00033

Cc1ccccc1 [toluene]
Details	mass density [kg/m3]	refractive index
[1]	862.19 ± 0.42	–
[2]	–	1.49397 ± 0.00037
